Measurements: patent US12070452B2, “Compounds targeting HSP110 protein for cancer treatment” (INSERM (Institut National de la Santé et de la Recherche …, priority 2018, dated 2024)

Legend:
phosphorylated STAT3 = test: P-STAT3 level in SW480 cells (immunoblot quantification); format: cell-based, human; conditions: 10 μM, 48 h, normalized by actin
Description: Results for SW480 cells treated during 48 h with non-relevant antibody (called NT), compound 52, compound 33, compound 51 and comparative compound 61 at 10 μM, and sh110 cells correspond to the third fourth, fifth, sixth and last columns from the left to the right.
FIG. 3B: Quantification of P-STAT3 level (in percentage) normalized by actin. […] (Ordinate: Percentage of P-STAT3 level (scale 50)
(§1) Immunoprecipitation test were realized on human colorectal cancer cells (SW480 and HCT116 cell lines), using a control depleted in HSP110 called Sh110 and a not depleted cells in HSP110. STAT3 phosphorylation is then […] by compounds 33 and 52. Depletion of HSP110 in the negative control blocked the phosphorylation of STAT3 without affecting STAT3 overall levels (FIGS. 2 and 3).

HSP110:STAT3 complex = target: T1, HSP110:STAT3 complex (Homo sapiens, UniProt Q92598); test: Immunoprecipitation of HSP110:STAT3 complex in SW480 cells; format: cell-based; conditions: SW480 shCtrl cells, 10 μM, 48 h
T1 construct: disrupting HSP110:STAT3 complex within the cell using human colorectal SW480 cancer cells; endogenous in cells; host or cells: SW480 cells carrying control shRNA (shCtrl); sh110 cells as HSP110-depleted control
Description: FIG. 2A: Immunoprecipitation (IP) analysis of HSP110 protein (first line), STAT3 protein (second line) compared with total Immunoglobuline (Ig) and actin in SW480 cells treated with (from left to the right column) non-relevant antibody as control (called NT a Normal rabbit IgG (sc-2027) from Santa Cruz Biotechnologies), compound 52 (related to formula (III)), compound 33 (related to formula (II)), compound 51 (related to formula (IV)) and comparative compound 61 at a concentration of 10 μM during 48 h on shCtrl cells transfected with shRNA for shRNA control (referenced ShCtrl IP:STAT3 for the five first columns) or HSP110-silencing (sh110) (referenced sh110-IP:STAT3 for the two last columns) (from the left to the right columns). Immunoprecipitation analysis of HSP110 (first line), STAT3 (second line) compared with total Ig and actin (second blot in the right) is observed with shCtrl cells transfected with shRNA for shRNA control (shCtrl) or HSP110-silencing (sh110) (left to right columns).
FIG. 2B: Quantification of HSP110:STAT3 disruption in percentage considering the total amount of HSP110 protein normalized by the signal intensity of the Ig band of FIG. 1 panel A. (Ordinate: Percentage of STAT3:HSP110 protein interaction (scale 50)). The histogram measured quantification in percentage for ShCtrl IP: STAT3 treated with Ctrl, compounds 52, 33, 51 and comparative compound 61, and for shCtrl cells transfected with shRNA for shRNA control referenced ShCtrl IP: STAT3) or HSP110-silencing (sh110) (referenced sh110-IP: STAT3) (from the left to the right column)
as §1

human protein HSP110 = target: T2, human protein HSP110 (Homo sapiens, UniProt Q92598); test: HSP110 anti-aggregation function (luciferase substrate test); format: biochemical; conditions: human HSP110 1.5 μM with firefly luciferase, 30 min at 42° C.; read-out: IC50 of HSP110 anti-aggregating activity
T2 construct: DNA coding the NBD-HSP110 (from human-HSP110)
Description: Anti-aggregation function of HSP110 was evaluated as described by O H et al (The Journal of biological chemistry 274, 15712-15718 (1999)). The human protein HSP110 (obtained as described above) at a concentration of 1.5 μM was incubated with firefly luciferase (from Sigma—from Photinus pyralis) in reaction buffer and heated in water bath for 30 min at 42° C.
Compounds of the present invention were added in reaction buffer to achieve the indicated concentrations and the final DMSO concentration was held constant at 1%. The heated reaction was diluted 10 times into buffer containing 60% of rabbit reticulocytelysate and incubated for 2 hours. The luciferase activity was measured by diluting 5 times the solution in HEPES and adding 5 μL of the solution in luciferase substrate (50 μL of Luciferase Assay System—Promega E1501 diluted in HEPES). The bioluminescence was reading with Envision Perkin Elmer.
The percentage of activity (x) was calculated by using the following equation: x=[(A−B)/(C−B)]×100, where (A) is the luciferase luminescence in presence of compounds of the invention, (B) in absence of HSP110 and (C) in presence of DMSO (Control). The percentage of total folding HSP110-promoted (mean=36%) was calculated considering as 100% the luminescence of luciferase incubated with HSP110 without heat shock. The IC50 were calculated from the dose-response curves, which were fitted by GraphPrism (Equation: Y=100/(1+10^((Log IC50−X)*HillSlope)).

CT26 cells = test: Flow cytometric analysis of cell death (Annexin V / 7-AAD) in CT26 cells; format: cell-based, mouse; conditions: 10 μM, 96 h
Description: FIG. 5A: Flow cytometric analysis of cell death in CT26 cells treated with the compound 33 (at the bottom left), compound 52 (at the bottom middle), comparative compound 61 (at the bottom right) at 10 μM during 96 h compared with Control (DMSO) (at the top left), and Cisplatin (at the top middle and top right). Live cells were double negative for 7-AAD (Y axis) and Annexin V (X axis), early apoptotic cells were positive for Annexin V, late apoptotic cells were positive for Annexin V and 7-AAD ([…]) and dead cells were positive for 7-AAD only.
FIG. 5B: Quantification of cell viability (in percentage) from flow cytometry data are represented (Control, cells, compounds 33, 52 and 61 from the left to the right bars). (Abscissa Negativity of 7-AAD; Ordinate Negativity of Annexin V).
We then analyzed cell death in CT26 cells treated with 10 μM during 96 h of compounds 33, 52 and 61 by flow cytometry. Cells were also treated with a well know anti-cancer compound, called cisplatin. Cells were marked for 7-aminoactinomycin D, which exclusively bind on death cells and for Annexin V, a well-known indicators of early stage apoptosis, thanks to its ability to bind to phosphatidylserine.

HSP110/Myd88 interaction = target: T3, HSP110/Myd88 interaction (Homo sapiens, UniProt Q92598); test: Immunoprecipitation of HSP110/Myd88 in DLBCL cell line; format: cell-based; conditions: IP Myd88, Western Blot
T3 construct: endogenous in cells
Excerpt: FIG. 10A: Immunoprecipitation (IP) analysis of HSP110 (first line), Myd88 (second line), heavy chains (third line) and actin (fourth line) in large B cell lymphoma cell lines (DLBCL).
Left part of FIG. 10A (“Inputs”): treated with (from left to right column of the left part of FIG. 10A) DMSO, compound 52 (5052), compound 33 (5033) and compound 61 (5061) (Negative control);
Middle part of FIG. 10A (“IP Myd88”): treated with (from left to right column of the middle part of FIG. 10A) DMSO, compound 52, compound 33 and compound 61 (as the negative control); Myd88 was immunoprecipitated with an antibody specifically directed against Myd88.
MyD88 was immuno-precipitated from the cell line which has been non-treated or treated with the HSP110 inhibitors.

T1 sequence (Q92598 2-858 limits assumed, one chain of several): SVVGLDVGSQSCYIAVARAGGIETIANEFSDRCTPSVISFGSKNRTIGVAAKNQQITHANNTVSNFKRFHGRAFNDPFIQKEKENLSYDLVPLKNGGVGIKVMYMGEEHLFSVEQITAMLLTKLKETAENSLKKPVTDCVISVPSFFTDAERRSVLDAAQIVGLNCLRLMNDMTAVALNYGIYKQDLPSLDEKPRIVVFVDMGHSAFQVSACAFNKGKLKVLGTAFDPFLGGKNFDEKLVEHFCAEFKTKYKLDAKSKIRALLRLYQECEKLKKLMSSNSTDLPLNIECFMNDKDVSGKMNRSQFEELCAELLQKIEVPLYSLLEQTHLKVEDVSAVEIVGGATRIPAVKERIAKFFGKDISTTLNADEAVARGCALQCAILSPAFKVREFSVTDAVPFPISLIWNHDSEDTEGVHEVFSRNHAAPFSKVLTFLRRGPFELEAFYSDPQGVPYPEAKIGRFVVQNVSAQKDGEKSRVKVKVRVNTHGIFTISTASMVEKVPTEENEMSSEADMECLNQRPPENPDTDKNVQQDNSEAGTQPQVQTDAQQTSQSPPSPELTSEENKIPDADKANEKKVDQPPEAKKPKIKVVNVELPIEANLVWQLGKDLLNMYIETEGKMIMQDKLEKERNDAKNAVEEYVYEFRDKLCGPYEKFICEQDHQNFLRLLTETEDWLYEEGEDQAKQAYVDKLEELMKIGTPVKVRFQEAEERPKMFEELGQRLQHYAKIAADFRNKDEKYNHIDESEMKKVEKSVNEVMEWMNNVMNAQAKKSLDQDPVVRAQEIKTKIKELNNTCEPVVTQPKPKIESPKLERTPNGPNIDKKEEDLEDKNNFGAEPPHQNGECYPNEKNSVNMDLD
T3 sequence (Q92598 2-858 limits assumed): as the sequence (Q92598 2-858 limits assumed, one chain of several) above
T2 sequence (Q92598 whole entry, looked up): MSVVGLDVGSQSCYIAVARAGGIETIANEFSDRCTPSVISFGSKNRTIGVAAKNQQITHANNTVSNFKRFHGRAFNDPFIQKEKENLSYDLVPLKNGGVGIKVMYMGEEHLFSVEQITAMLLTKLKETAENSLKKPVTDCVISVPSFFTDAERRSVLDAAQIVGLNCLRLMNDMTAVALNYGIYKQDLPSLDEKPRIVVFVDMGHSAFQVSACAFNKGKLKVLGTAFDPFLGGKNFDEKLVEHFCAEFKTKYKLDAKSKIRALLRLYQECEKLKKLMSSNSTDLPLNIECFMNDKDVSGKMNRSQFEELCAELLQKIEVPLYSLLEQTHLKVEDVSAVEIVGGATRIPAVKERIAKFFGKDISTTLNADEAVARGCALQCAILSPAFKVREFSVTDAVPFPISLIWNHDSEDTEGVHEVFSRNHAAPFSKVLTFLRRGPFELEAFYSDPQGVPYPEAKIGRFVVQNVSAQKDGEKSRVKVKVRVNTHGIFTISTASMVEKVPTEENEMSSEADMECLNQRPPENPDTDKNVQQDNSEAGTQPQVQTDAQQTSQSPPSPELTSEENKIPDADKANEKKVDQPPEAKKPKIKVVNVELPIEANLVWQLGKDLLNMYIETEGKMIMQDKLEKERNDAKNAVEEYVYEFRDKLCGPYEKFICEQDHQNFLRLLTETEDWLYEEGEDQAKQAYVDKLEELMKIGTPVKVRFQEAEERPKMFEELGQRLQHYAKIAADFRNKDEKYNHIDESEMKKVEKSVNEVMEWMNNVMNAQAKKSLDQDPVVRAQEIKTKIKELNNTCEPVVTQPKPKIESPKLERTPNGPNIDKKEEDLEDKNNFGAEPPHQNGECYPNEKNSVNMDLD

Row | percentage of interaction of STAT3:HSP110 (HSP110:STAT3 complex) | IC50 (human protein HSP110) [µM] | HSP110/Myd88 interaction (HSP110/Myd88 interaction) | SMILES | P-STAT3 level (phosphorylated STAT3) | cell death / apoptosis (Annexin V and 7-AAD marking) (CT26 cells)
1 | not decrease | 227.5 ± 1.9 | does not inhibit | N#CCc1cccc(-c2cnc(Cl)c(/C=C/c3ccccc3)c2)c1 [compound 61, (E)-2-(3-(6-Chloro-5-styrylpyridin-3-yl)phenyl) acetonitrile, reference compound] | 100% | don't seem to be marked
2 | not decrease | – | – | COc1ccc(-c2cnc(-c3cnc(-c4ccc(OC)c(OC)c4)c(C)c3)c(/C=C/c3ccccc3)c2)cc1OC [compound 51, (E)-5,6′-Bis(3,4-dimethoxyphenyl)-5′-methyl-3-styryl-2,3′-bipyridine] | about 50% | –
